In patent US8778964B2, “Hydroxy-substituted imidazo[1,2-a]-pyridinecarboxamides and their use” (Bayer Pharma Aktiengesellschaft, priority 2012, dated 2014):
Structures can show the parent of a compound that is named as a salt.

System: recombinant guanylate cyclase reporter cell line
Test: Action on recombinant guanylate cyclase reporter cell line (MEC)
Type: cell-based
Conditions: in some cases mean values obtained from individual determinations
Experimental: B-2. Action on Recombinant Guanylate Cyclase Reporter Cell Line
The cellular action of the compounds according to the invention is determined on a recombinant guanylate cyclase reporter cell line, as described in F. Wunder et al., Anal. Biochem. 339, 104-112 (2005).
Representative values (MEC=minimal effective concentration) for the compounds according to the invention are shown in the following table (in some cases as mean values obtained from individual determinations): […]

SMILES | minimal effective concentration [µM]
CC[C@H](CO)NC(=O)c1c(C)nc2c(OCC3CCCCC3)cccn12 [Example 72, 8-(cyclohexylmethoxy)-N-[(2R)-1-hydroxybutan-2-yl]-2-methylimidazo[1,2-a]pyridine-3-carboxamide] | 0.1
Cc1nc2c(OCc3c(F)cccc3F)cccn2c1C(=O)NCCO [Example 21, 8-[(2,6-difluorobenzyl)oxy]-N-(2-hydroxyethyl)-2-methylimidazo[1,2-a]pyridine-3-carboxamide] | 1
CSCC[C@@H](CO)NC(=O)c1c(C)nc2c(OCC3CCCCC3)cccn12 [Example 90, 8-(cyclohexylmethoxy)-N-[(2S)-1-hydroxy-4-(methylsulphanyl)butan-2-yl]-2-methylimidazo[1,2-a]pyridine-3-carboxamide] | 1
Cc1nc2c(OCc3c(F)cccc3F)cccn2c1C(=O)NC1(CO)CCCC1 [Example 31, 8-[(2,6-difluorobenzyl)oxy]-N-[1-(hydroxymethyl)cyclopentyl]-2-methylimidazo[1,2-a]pyridine-3-carboxamide] | 1
CCCC[C@H](CO)NC(=O)c1c(C)nc2c(OCc3c(F)cccc3F)cc(Cl)cn12 [Example 131, 6-chloro-8-[(2,6-difluorobenzyl)oxy]-N-[(2R)-1-hydroxyhexan-2-yl]-2-methylimidazo[1,2-a]pyridine-3-carboxamide] | 0.01
Cc1cc(OCCC(C(F)(F)F)C(F)(F)F)c2nc(C)c(C(=O)NC(CCCC(F)(F)F)C(C)(C)O)n2c1 (racemic) [Example 170, rac-2,6-Dimethyl-N-(7,7,7-trifluoro-2-hydroxy-2-methylheptan-3-yl)-8-[4,4,4-trifluoro-3-(trifluoromethyl)butoxy]imidazo[1,2-a]pyridine-3-carboxamide] | 3
CCCC[C@H](CO)NC(=O)c1c(C)nc2c(OCc3c(F)cccc3F)c(F)ccn12 [Example 177, 8-[(2,6-Difluorobenzyl)oxy]-7-fluoro-N-[(2R)-1-hydroxyhexan-2-yl]-2-methylimidazo[1,2-a]-pyridine-3-carboxamide] | 1
Cc1nc2c(OCc3c(F)cccc3F)cccn2c1C(=O)N[C@@H](CO)C(C)(C)O [Example 165, 8-[(2,6-Difluorobenzyl)oxy]-N-[(2S)-1,3-dihydroxy-3-methylbutan-2-yl]-2-methylimidazo[1,2-a]-pyridine-3-carboxamide] | 1
Cc1nc2c(OCc3c(F)cccc3F)cccn2c1C(=O)NC(C)C(O)C(F)(F)F (single isomer, unassigned) [Example 146, 8-[(2,6-Difluorobenzyl)oxy]-2-methyl-N-(4,4,4-trifluoro-3-hydroxybutan-2-yl)imidazo[1,2-a]-pyridine-3-carboxamide] | 1.0
Cc1nc2c(OCc3c(F)cccc3F)cccn2c1C(=O)N[C@@H](CO)c1ccccc1 (racemic) [Example 104, rac-8-[(2,6-difluorobenzyl)oxy]-N-[(1R)-2-hydroxy-1-phenylethyl]-2-methylimidazo[1,2-a]pyridine-3-carboxamide trifluoroacetate] | 0.1
CCCC[C@H](CO)NC(=O)c1c(C)nc2c(OCc3cccc(F)c3)cccn12 [Example 6, 8-[(3-fluorobenzyl)-oxy]-N-[(2R)-1-hydroxyhexan-2-yl]-2-methylimidazo[1,2-a]pyridine-3-carboxamide] | 0.1
Cc1nc2c(OCc3c(F)cccc3F)cccn2c1C(=O)NC(CO)c1ccc(F)cc1 (racemic) [Example 103, rac-8-[(2,6-difluorobenzyl)oxy]-N-[1-(4-fluorophenyl)-2-hydroxyethyl]-2-methylimidazo-[1,2-a]pyridine-3-carboxamide trifluoroacetate] | 0.1
CCCC[C@H](CO)NC(=O)c1c(C)nc2c(OCc3c(F)cccc3F)cc(Br)cn12 [Example 65, 6-bromo-8-[(2,6-difluorobenzyl)oxy]-N-[(2R)-1-hydroxyhexan-2-yl]-2-methylimidazo[1,2-a]pyridine-3-carboxamide] | 0.03
Cc1cc(OCC2CC(F)(F)C2)c2nc(C)c(C(=O)NC(CCCC(F)(F)F)C(C)(C)O)n2c1 (racemic) [Example 176, rac-8-[(3,3-Difluorocyclobutyl)methoxy]-2,6-dimethyl-N-(7,7,7-trifluoro-2-hydroxy-2-methylheptan-3-yl)imidazo[1,2-a]pyridine-3-carboxamide] | 3
Cc1nc2c(OCc3c(F)cccc3F)cccn2c1C(=O)NC1(CO)CCC1 [Example 125, 8-[(2,6-Difluorobenzyl)oxy]-N-[1-(hydroxymethyl)cyclobutyl]-2-methylimidazo[1,2-a]pyridine-3-carboxamide] | 0.3
Cc1cc(OCCC(C(F)(F)F)C(F)(F)F)c2nc(C)c(C(=O)NC3c4ccccc4CC3O)n2c1 (centres unmarked) [Example 172, N-(2-Hydroxy-2,3-dihydro-1H-inden-1-yl)-2,6-dimethyl-8-[4,4,4-trifluoro-3-(trifluoromethyl)-butoxy]imidazo[1,2-a]pyridine-3-carboxamide] | 1
CCCC[C@H](CO)NC(=O)c1c(C)nc2c(OCc3c(F)cccc3F)cc(F)cn12 [Example 132, 8-[(2,6-difluorobenzyl)oxy]-6-fluoro-N-[(2R)-1-hydroxyhexan-2-yl]-2-methylimidazo[1,2-a]pyridine-3-carboxamide] | 0.03
Cc1nc2c(OCc3c(F)cccc3F)cccn2c1C(=O)NCCCO [Example 22, 8-[(2,6-difluorobenzyl)oxy]-N-(3-hydroxy-propyl)-2-methylimidazo[1,2-a]pyridine-3-carboxamide] | 1
CCCC[C@@H](NC(=O)c1c(C)nc2c(OCc3c(F)cccc3F)cccn12)C(C)(C)O [Example 147, 8-[(2,6-Difluorobenzyl)oxy]-N-[(3R)-2-hydroxy-2-methylheptan-3-yl]-2-methylimidazo[1,2-a]-pyridine-3-carboxamide] | 0.1
CCCC[C@H](CO)NC(=O)c1c(C)nc2c(OCc3c(F)cccc3F)cc(N3CCCC3)cn12 [Example 64, 8-[(2,6-difluorobenzyl)oxy]-N-[(2R)-1-hydroxyhexan-2-yl]-2-methyl-6-(pyrrolidin-1-yl)imidazo[1,2-a]pyridine-3-carboxamide] | 3
Cc1nc2c(OCc3c(F)cccc3F)cccn2c1C(=O)NCC(O)C(F)(F)F (racemic) [Example 106, rac-8-[(2,6-difluorobenzyl)oxy]-2-methyl-N-(3,3,3-trifluoro-2-hydroxypropyl)imidazo[1,2-a]pyridine-3-carboxamide trifluoroacetate] | 0.3
CCCCC(NC(=O)c1c(C)nc2c(OCCC(C)C)cc(C)cn12)C(C)(C)O (stereo not drawn) [Example 167, ent-N-(2-Hydroxy-2-methylheptan-3-yl)-2,6-dimethyl-8-(3-methylbutoxy)imidazo[1,2-a]pyridine-3-carboxamide] | 2
CCCC[C@@H](NC(=O)c1c(C)nc2c(OCc3c(F)cccc3F)cccn12)C(O)C(F)(F)F (stereo partly drawn) [Example 141, 8-[(2,6-Difluorobenzyl)oxy]-2-methyl-N-[(3R)-1,1,1-trifluoro-2-hydroxyheptan-3-yl]imidazo[1,2-a]pyridine-3-carboxamide] | 0.1
